In patent US20100063041A1, “NOVEL PHENYLPROPIONIC ACID DERIVATIVES AS PEROXISOME PROLIFERATOR-ACTIVATED GAMMA RECEPTOR MODULATORS, METHOD OF THE SAME, AND PHARMACEUTICAL COMPOSITION COMPRISING THE SAME” (priority 2007, published 2010):

Target: T1, PPAR-γ and Trap220 (Homo sapiens, UniProt P37231)
T1 construct: expressed in transfected cells; host or cells: CHO-K1 (CCL-61, ATCC)
T1 sequence (P37231 238-503 limits assumed): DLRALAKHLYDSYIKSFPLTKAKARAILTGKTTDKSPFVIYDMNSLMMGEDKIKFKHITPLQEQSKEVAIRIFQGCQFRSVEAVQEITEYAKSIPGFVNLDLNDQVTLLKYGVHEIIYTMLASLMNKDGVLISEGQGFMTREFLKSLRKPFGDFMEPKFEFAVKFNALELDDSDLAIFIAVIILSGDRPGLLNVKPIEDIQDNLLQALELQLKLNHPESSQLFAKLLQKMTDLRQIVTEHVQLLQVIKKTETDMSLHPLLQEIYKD
Assay: binding capacity with Trap220 (mammalian two-hybrid assay) in CHO-K1 cells
Format: cell-based
Conditions: compared to the positive control drug rosiglitazone, FIG. 1
Procedure: Following induction of transient intracellular expression of PPAR-γ and Trap220, the binding capacity of the inventive compounds to a cofactor Trap220 after activation of PPAR-γ by the action of the inventive compounds was evaluated (mammalian two-hybrid assay).
For this purpose, a […] ovary cell line CHO-K1 (CCL-61, ATCC) was used as a test cell line. DNA constructs used in this assay were an expression vector pVP16 (Clontech) constructed to express a fusion of a human PPAR-γ2 ligand-binding domain with an activation domain of the […], and an expression vector pM (Clontech) constructed to express a fusion of human Trap220 with the GAL4 DNA-binding domain. Rosiglitazone maleate (Alcon Biosciences Private Limited), which is clinically used as a PPAR-γ agonist, was employed as a control drug.
The CHO-K1 cells were transiently transfected with two DNA constructs expressing the chimeric receptors and DNA constructs comprising 5 copies of the GAL4 DNA-binding domain and capable of inducing expression of firefly luciferase or Renilla luciferase using a Lipofectamine Plus reagent (Invitrogen, USA). Subsequent processes were carried out in the same manner as in the transactivation assay. The experimental results were expressed as an increase of the responsiveness vs. the negative control group with no addition of the drug.

responsiveness (binding capacity with Trap220): reduced responsiveness
Structure (SMILES): CCO[C@@H](Cc1ccc(OCc2sc(-c3ccc(-c4cc(C)no4)cc3)cc2C)cc1)C(=O)[O-].[Na+] [Example 43, sodium (S)-2-ethoxy-3-(4-((3-methyl-5-(4-(3-methylisoxazol-5-yl)phenyl)thiophen-2-yl)methoxy)phenyl)propanoate]
